Holding throughout (assay type): cell-based
The test system of series [1] is human engineered heart tissue (hEHT). Description: Optical mapping detection of human EHT electrical conduction. On the procedure:
1) The electrode was made of 0.2 mm platinum wire, and the conductive function was tested using a sealed membrane nickel wire interface.
2) Fluo-4/RHOD2 was dissolved in DMSO (dimethyl sulfoxide) with a volume ratio of 1:1 to prepare a stock solution, which was then added into EHT medium at a ratio of 1:1,000 (working solution), incubated at 37° C. for 20 min, followed by washing with DPBS twice, then incubated with serum-free EHT medium at 37° C.
3) Preparation of medium for imaging: 10 μM Blebbistatin was added into the Tyrode's Solution or serum-free EHT medium in a volume ratio of 1:2,000 for imaging. The medium for imaging was added into a PDMS dish, the EHT was fixed on the dish with a specimen needle, put in a 41° C. temperature control chamber, and the electrode was put on one side of the EHT; an optical mapping camera was used for formal imaging, and the preview speed of 600 ms was recorded in 10 seconds, then recording was conducted in the cases where there was no electrical stimulation and 1 Hz electrical stimulation, respectively, in which the laser intensity was MAX: 12-16%.
The collected data were analyzed by optical mapping software.

The test system is the same in series [2]. The series is described as follows: Contractility detection of human EHT by mechanical assay (force transducer, stretch). The method, then: 1) After EHT was constructed and cultured for 5-7 days (the medium was changed every other day), the EHTs had good structure and beat regularly.
(§1) 2) EHT was stimulated by 500 μM PA, and for the control group, it contained the same concentration of BSA and ethanol. After 24 hours and 72 hours of stimulation, the supernatant and tissue samples were collected for functional detection.
3) A contractility detection system by mechanical assay: the mechanical characteristics of the bundle were detected by using a mechanical measurement platform, in which the bath, platinum electrode, tissue fixation device, and assembly form were self-designed, and other components such as sensors, amplifiers, digital-to-analog converters, data acquisition software, stepper motors, supporting components, temperature controllers and stimulators were all commercially available and assembled in-house after procurement.
4) Experimental steps for contractility detection by mechanical assay: the instrument was preheated for 30 minutes in advance, and the sensor was calibrated with precision weights by gravity. The Tyrode's Solution containing 1.8 mM CaCl2 was put into a 37° C. water bath for preheating in advance, and the platform was set to 37° C. The bundle was dipped into the Tyrode's Solution, and both ends were fixed with specimen needles, wherein one of which was fixed on the sensor and the other was fixed on the bath. Data were collected after the microstructure was balanced for 2 min. Start the electrical stimulator, and stimulate the bundle electrically at a voltage of 10 V and frequencies of 1, 1.5, 2, 2.5, and 3 Hz. Start the stepper motor to control software to start the programmed stretching program, and stretch the bundle from the initial state (8 mm) by 12% (0.96 mm) of the initial length, stretching 2% (0.16 mm) each time, collecting data for 40 s in each stretching state, and collecting contraction force data under different stretching states. After stretching, end the collection and save the data. The collected data were analyzed by the customized program MATLAB software.

Series [3] shares this test system. The series is described as follows: LDH myocardial injury marker in hEHT model. As to conditions: 500 μM PA, 72 h stimulation. The method, then:
In the present disclosure, an in vitro tissue model of diabetic cardiomyopathy obtained by the above construction method is also provided. According to the disclosure, it is identified that a diabetic cardiomyopathy tissue model is generated with myocardial contractility that ranges from unchanged (1 day) to decreased (3 days), concomitant with the appearance of a myocardial fibrosis phenotype by dynamic stimulation of hEHT with 500 μM PA.
as §1

The subject of series [4] is human pluripotent stem cell-derived cardiomyocytes. Description: CCK8 survival rate of human pluripotent stem cell-derived cardiomyocytes (planar monolayer). As to conditions: 250 μM PA, 24 h, versus 30 mM Glucose and 10 nM ET-1 + glucocorticoid, single or combined factors. The method, then:
FIG. 2A-FIG. 2B show the results of confirming the effects of different metabolic factors on survival rate of the cardiomyocytes in the present disclosure.
3) Diluting PA with a final concentration of 250 μM, 500 μM, and 750 μM using cells or EHT medium to stimulate human-derived cardiomyocytes or EHTs. An equivalent amount of ethanol was dissolved in 10% BSA, which was diluted with medium finally as a control solution.
In the present disclosure, firstly, differentiated human cardiomyocytes were paved into planar monolayer cells, and then the cell survival rate was detected by adding 30 mM Glucose, 250 μM PA, 10 nM endothelin (ET-1) and […] glucocorticoid to the medium as single or combined factor(s), respectively, it is identified that the most obvious diabetic stimulus factor for cardiomyocyte injury was PA (FIG. 2A-FIG. 2B). Furthermore, different concentrations of PA were used to stimulate cardiomyocytes, and the concentration and time-dependent effects were evaluated (FIG. 3A). The injury effect of PA was determined through myocardial injury marker LDH (FIG. 3B).

The subject of series [5] is human engineered heart tissue (hEHT). Description: H&E staining and immunofluorescence staining of human EHT (fibrosis). On the procedure: For the morphological and histological observation after Bundle stimulation, the tissue was first treated by conventional paraffin embedding methods, and then the tissue was stained by basic staining and immunofluorescence staining after slicing. The specific steps were as follows: • (1) Cleaning the bundle twice using DPBS without calcium and magnesium ions. • (2) Fixing the bundle with 4% PFA (Paraformaldehyde) at room temperature for 15 min. • (3) Placing the fixed bundle in a paraffin tissue embedding frame and rinsing it with running water for 2 h. • (4) The […] bundle was subjected to gradient dehydrating and wax dipping using a Dewaxer (Hisure Scientific Co., Ltd.) with a total of 12 cylinders under the following conditions: 70% ethanol for 1 h, 80% ethanol for 1 h, 80% ethanol for 0.5 h, 90% ethanol for 0.5 h, 90% ethanol for 0.5 h, 100% ethanol for 0.5 h, xylene for 0.5 h, xylene for 0.5 h, paraffin at 63° C. for 5 min, paraffin at 63° C. for 5 min and paraffin at 63° C. for 5 min. • (5) After the dehydrated Bundle was placed at the bottom of the iron frame molding tool with an appropriate size, the plastic embedding frame was placed on the iron frame molding tool, and then placed on the freezing platform. […] After adding the anti-fluorescence quencher dropwise, the coverslip was covered, and the slide was mounted with nail polish.

The mark [6] stands for this setting: Empagliflozin added with 500 μM PA, 24 hours' stimulation.

Turning to `OC[C@H]1O[C@@H](c2ccc(Cl)c(Cc3ccc(O[C@H]4CCOC4)cc3)c2)[C@H](O)[C@@H](O)[C@@H]1O` [Empagliflozin], in series [1] (setting [6]), the “APD80 of PA-stimulated human EHT” value was “improved”, the “contraction amplitude of PA-stimulated human EHT” value is recorded as “effectively recover” and the “electric signal conduction velocity of PA-stimulated human EHT” value is given as “effectively recover”. For the same molecule, the “number of abnormal diastolic peaks of PA-stimulated hEHT” value in series [2] (Empagliflozin added with 500 μM PA, under stretch conditions) was “reduced number”.
`CCCCCCCCCCCCCCCC(=O)O` [PA, palmitic acid]: in series [3], the LDH entry is listed as “increased significantly”. In series [4], the “cardiomyocyte survival rate (CCK8)” value is on record as “lowest”. In series [1] (500 μM PA, 6 h stimulation), the APD50 entry is “obviously increased”, the APD80 entry is given as “obviously increased”, the contraction amplitude entry is recorded as “not decreased” and the “electric signal conduction velocity” value was “not decreased”. In addition, in series [2] (500 μM PA, 24 h stimulation), the “abnormal relaxation (diastolic) peak” value was “abnormal relaxation peak”, the “myocardial relaxation time (diastolic duration)” value was “prolonged” and the “positive contractility (contraction force)” value is “did not affect”. In series [2] (500 μM PA, 72 h stimulation), the “abnormal peaks (diastolic)” value is “more frequent”, the “inotropic force (contraction force)” value was “significant decrease” and the “relaxation time (diastolic duration)” value is “more frequent prolongation”. For the same molecule, the “pathological changes and level of fibrosis inside human EHT” value in series [5] (24 hours after PA stimulation) was “no obvious pathological changes and changes in the level of fibrosis”. Further, in series [5] (72 hours after PA stimulation), the “fibrosis inside the heart tissue” value is recorded as “obvious fibrosis”.

Source of the values: patent US20250034525A1, “CONSTRUCTION METHOD, DETECTION METHOD, AND APPLICATION OF IN VITRO TISSUE MODEL OF DIABETIC CARDIOMYOPATHY” (HUBEI UNIVERSITY, priority 2023, published 2025).
